The values below come from patent US5264355A, “Methlating enzyme from streptomyces MA6858” (Merck & Co., Inc., priority 1992, dated 1993).

Data set [1] addresses T1, 31-O-desmethylFK-506 O-methyltransferase (FKMT) (Streptomyces tacrolimicus, UniProt P74838).
T1 construct: endogenous in cells; host or cells: Native enzyme purified in house from mycelium of Streptomyces MA6858 (ATCC 55098), not recombinant; for the kinetics, purified through the second MonoQ column
T1 sequence (P74838 1-260): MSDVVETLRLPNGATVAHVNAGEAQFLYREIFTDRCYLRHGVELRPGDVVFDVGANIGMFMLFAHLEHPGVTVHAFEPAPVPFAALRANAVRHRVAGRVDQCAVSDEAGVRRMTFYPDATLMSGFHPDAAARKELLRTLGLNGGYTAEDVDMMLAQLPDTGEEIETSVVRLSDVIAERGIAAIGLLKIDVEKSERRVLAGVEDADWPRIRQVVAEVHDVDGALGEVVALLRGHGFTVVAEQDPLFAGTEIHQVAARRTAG
The experiment in a line: FKMT O-methyltransferase assay / kinetic analysis. The format is biochemical, Streptomyces sp. MA6858. The conditions noted are these: substrate A as variable, above 50 uM; fixed SAM 220 μM. How it is done:
(§1) This enzyme, is SAM dependent and has requirement for Mg^+2 with optimum concentration of 4 mM. […] The temperature effect on the methylation reaction was examined at 0°, 22°, 24°, 34°, 37°, and 44° C. The optimum temperature for the reaction was determined to be at 34° C. Above this temperature there was a problem with substrate decomposition. Under the established incubation condition in which 31 uM of substrate A and 220 uM of SAM were used, the rate of the methylation reaction was linear up to 35 min with protein concentration up to 100 ug.
(§2) For the kinetic studies, a preparation of the FKMT enzyme which had been purified through the second MonoQ column chromatography was used. Under conditions for the initial velocity measurement, apparent Km and Vmax were determined for 31-O-desmethyFK-506 (substrate A) at one saturating concentration of SAM ([…]). […]
(§3) The assay was carried out in 1 ml. mixture containing 0.025 mM 31-desmethylFK-506, 4 mM MgSO4 and different quantities of the enzyme source in 50 mM phosphate buffer, pH 7.5. […] The plastic sheet was developed in chloroform:methanol (9:1) and area showing standard FK-506 under UV-light was cut and the radioactivity in the cut-strip was measured and the amount of the product formed was calculated.

Data set [2] has as its system in vitro immune systems. The conditions noted are these: J. Antibiotics 1987, 40, 1256; cited from earlier work.
Substrate in data set [3]: C=CC[C@@H]1/C=C(\C)C[C@H](C)C[C@H](OC)[C@H]2O[C@@](O)(C(=O)C(=O)N3CCCC[C@H]3C(=O)O[C@H](/C(C)=C/[C@@H]3CC[C@@H](O)[C@H](O)C3)[C@H](C)[C@@H](O)CC1=O)[C@H](C)C[C@@H]2OC
The experiment in a line: FKMT O-methyltransferase assay / kinetic analysis. The conditions noted are these: other: FKMT purified through second MonoQ column, initial velocity, pH 7.5. The class given is biochemical, Streptomyces sp. MA6858. The method, then: as §1, §2, §3

Take `C=CC[C@@H]1/C=C(\C)C[C@H](C)C[C@H](OC)[C@H]2O[C@@](O)(C(=O)C(=O)N3CCCC[C@H]3C(=O)O[C@H](/C(C)=C/[C@@H]3CC[C@@H](O)[C@H](O)C3)[C@H](C)[C@@H](O)CC1=O)[C@H](C)C[C@@H]2OC` [31-O-desmethyFK-506]: the substrate inhibition entry in data set [1] is reported as “no substrate inhibition”.

Consider `C=CC[C@@H]1/C=C(\C)C[C@H](C)C[C@H](OC)[C@H]2O[C@@](O)(C(=O)C(=O)N3CCCC[C@H]3C(=O)O[C@H](/C(C)=C/[C@@H]3CC[C@@H](O)[C@H](OC)C3)[C@H](C)[C@@H](O)CC1=O)[C@H](C)C[C@@H]2OC` [FR-900506, 17-allyl-1,14-dihydroxy-12-[2'-(4"-hydroxy-3"-methoxycyclohexyl)-1'-methylvinyl]-23,25-dimethoxy-13,19,21,27-tetramethyl-11,28-dioxa-4-azatricyclo-[22.3.1.0^4,9]-octacos-18-ene-2,3,10,16-tetraone], for which the “effectiveness relative to cyclosporin in the suppression of in vitro immune systems” value in data set [2] is reported as 100 times.

B1: 31-O-desmethylFK-506 O-methyltransferase (FKMT) (Streptomyces tacrolimicus) (protein)
chain: MSDVVETLRLPNGATVAHVNAGEAQFLYREIFTDRCYLRHGVELRPGDVVFDVGANIGMFMLFAHLEHPGVTVHAFEPAPVPFAALRANAVRHRVAGRVDQCAVSDEAGVRRMTFYPDATLMSGFHPDAAARKELLRTLGLNGGYTAEDVDMMLAQLPDTGEEIETSVVRLSDVIAERGIAAIGLLKIDVEKSERRVLAGVEDADWPRIRQVVAEVHDVDGALGEVVALLRGHGFTVVAEQDPLFAGTEIHQVAARRTAG
notes: Washed mycelium was used for the preparation of the cell-free extract; endogenous in cells; host or cells: Native enzyme purified in house from mycelium of Streptomyces MA6858 (ATCC 55098), not recombinant; for the kinetics, purified through the second MonoQ column
For orientation: Km means the concentration of substrate that gives half-maximal velocity. A word on the Vmax: it is the top rate of the reaction or transport when substrate is in excess. As for B1, in data set [3] (saturating SAM (220 uM)), the Michaelis-Menten constant (Km) worked out at 23.21 µM. In addition, the Vmax in data set [3] (saturating SAM (220 mM as printed)) came out at 2.33 nmol/mg/min.
